From patent US11267814B2, “Compounds for bone growth” (OsteoQC Inc., priority 2013, dated 2022)

Legend:
[1] = tested on: MC3T3-E1 (mouse calvarial) osteoblast cells; test: Rescue of sclerostin inhibition of mineralization (total calcium); format: cell-based; conditions: calcium concentration; for IC100: Mus musculus, MC3T3-E1, read-out: Sclerostin Inhibition of Mineralization, improvement over sclerostin alone.
Experimental: Mineralization (crystalline calcium phosphate formation) represents an in vitro model of bone formation. […] Following the protocol described in Li et al., Compounds were assayed for their ability to rescue the inhibition of mineralization by sclerostin in MC3T3 osteoblast cells.

[2] = biological target: T1, sclerostin (Homo sapiens, UniProt Q9BQB4); test: Modulation of sclerostin/Wnt activity (sclerostin inhibition assay): restoring Wnt3a signaling in the presence of sclerostin; format: cell-based; conditions: for Sclerostin Inhibition Assay; improvement over sclerostin alone.: IC100 class, Wnt3a signaling in human embryonic cells in presence of sclerostin
T1 construct: host or cells: human embryonic cells (reporter cells)
T1 sequence (Q9BQB4 24-213): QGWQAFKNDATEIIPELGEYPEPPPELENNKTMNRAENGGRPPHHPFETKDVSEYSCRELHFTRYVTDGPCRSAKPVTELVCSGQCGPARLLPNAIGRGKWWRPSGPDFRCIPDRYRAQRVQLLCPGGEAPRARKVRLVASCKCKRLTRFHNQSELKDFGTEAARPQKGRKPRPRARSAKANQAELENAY

[3] = tested on: MC3T3 osteoblast cells; test: Osteocalcin (OCN) secretion, bone formation marker, ELISA; format: cell-based, mouse; conditions: for IC100: Mus musculus
Experimental: Bone formation can also be assayed in vitro or in vivo using a serum marker for bone formation, osteocalcin (OCN), available from Biomedical Tecnhnologies, Inc. (Stoughton, Mass.). Following the manufacturer's protocol for the mouse osteocalcin EIA kit (described at the website www.btiinc.com/page/cata2.html#mouse_osteocalcin), bone formation in MC3T3 osteoblast cells was assayed by measuring the concentration of OCN.

[4] = IC100 class, MC3T3 osteoblast cells treated with sclerostin
[5] = IC100 class, OCN secreted from MC3T3 osteoblast cells treated with sclerostin
[6] = MC3T3 osteoblast cells, result in words

Compound	Sclerostin Inhibition Assay; improvement over sclerostin alone. [2]	effect on Wnt3a signaling ([2]; human embryonic cells, result in words)	IC100 [1, 4] [µM]	IC100 [3, 5] [µM]	Sclerostin Inhibition of Mineralization; improvement over sclerostin alone. [1, 4]	effect on mineralization [1, 6]	OSTEOCALCIN (Bone Formation Marker) [3, 5]	effect on OCN secretion [3, 6]
CC(Cn1c2ccccc2c2ccccc21)N(C)C (stereo not drawn) [Example 2, 1-(9H-carbazol-9-yl)-N,N-dimethylpropan-2-amine]	+ (+ indicates an IC100 > 10 μM)		> 10	> 10				
COc1ccc2c3ccnc(C)c3n(C(C)CN(C)C)c2c1 (stereo not drawn) [Example 5, 2-(7-methoxy-1-methyl-9H-pyrido[3,4-b]indol-9-yl)-N,N-dimethylpropan-1-amine]	++ (++ indicates an IC100 < 10 μM)		< 10	< 10				
COc1ccc2c3ccnc(C)c3n(CCN(C)C)c2c1 [Example 7, 2-(7-methoxy-1-methyl-9H-pyrido[3,4-b]indol-9-yl)-N,N-dimethyl ethanamine]	++ (++ indicates an IC100 < 10 μM)		< 10	< 10				
COc1ccc2c3ccnc(C)c3n(CCN3CCN(C(=O)OC(C)(C)C)CC3)c2c1 [Example 14, t-butyl 4-(2-(7-methoxy-1-methyl-9H-pyrido[3,4-b]indol-9-yl)ethyl) piperazine-1-carboxylate]	++ (++ indicates an IC100 < 10 μM)		< 10	< 10				
COc1ccc2c3ccnc(C)c3n(CCN3CCNCC3)c2c1 [Example 16, 7-methoxy-1-methyl-9-(2-(piperazin-1-yl)ethyl)-9H-pyrido[3,4-b]indole]	++ (++ indicates an IC100 < 10 μM)		< 10	< 10				
Cc1nc(O)cc2c1[nH]c1cc(O)ccc12 [Example 20, 1-methyl-9H-pyrido[3,4-b]indole-3,7-diol]	+ (+ indicates an IC100 > 10 μM)		> 10	> 10				
Oc1ccc2c(c1)[nH]c1c(C(F)(F)F)nccc12 [Example 23, 1-(trifluoromethyl)-9H-pyrido[3,4-b]indol-7-ol]	++ (++ indicates an IC100 < 10 μM)		< 10	< 10				
COc1ccc2c3ccnc(C(F)(F)F)c3n(CCN3CCN(C(=O)OC(C)(C)C)CC3)c2c1 [Example 24, t-butyl 4-(2-(7-methoxy-1-(trifluoromethyl)-9H-pyrido[3,4-b]indol-9-yl)ethyl)piperazine-1-carboxylate]	++ (++ indicates an IC100 < 10 μM)		< 10	< 10				
COc1ccc2c(c1)[nH]c1c(C)nc(F)cc12 [Example 38, 3-fluoro-7-methoxy-1-methyl-9H-pyrido[3,4-b]indole]	++ (++ indicates an IC100 < 10 μM)		< 10	< 10				
COc1ccc2c(c1)[nH]c1c(C)cncc12 [Example 41, 7-methoxy-4-methyl-5H-pyrido[4,3-b]indole]	+ (+ indicates an IC100 > 10 μM)		> 10	> 10				
Cc1nccc2c1[nH]c1cc(OC3CC3)ccc12 [Example 42, 7-cyclopropoxy-1-methyl-9H-pyrido[3,4-b]indole]	+ (+ indicates an IC100 > 10 μM)		> 10	> 10				
Cc1nccc2c1[nH]c1cc(OC(C)(F)F)ccc12 [Example 43, 7-(1,1-difluoroethoxy)-1-methyl-9H-pyrido[3,4-b]indole]	++ (++ indicates an IC100 < 10 μM)		< 10	< 10				
Cc1nccc2c1[nH]c1cc(Cl)ccc12 [Example 44, 7-chloro-1-methyl-9H-pyrido[3,4-b]indole]	++ (++ indicates an IC100 < 10 μM)		< 10	< 10				
Cc1nccc2c1[nH]c1cc(OC(F)F)ccc12 [Example 45, 7-(difluoromethoxy)-1-methyl-9H-pyrido[3,4-b]indole]	++ (++ indicates an IC100 < 10 μM)		< 10	< 10				
Cc1nccc2c1[nH]c1cc(OCC3CC3)ccc12 [Example 46, 7-(cyclopropylmethoxy)-1-methyl-9H-pyrido[3,4-b]indole]	++ (++ indicates an IC100 < 10 μM)		< 10	< 10				
sclerostin protein: SOST (Sclerostin) protein; antagonizes Wnt3a signaling and inhibits mineralization and OCN secretion in the assays	−	antagonized Wnt3a signaling			−	significant decrease in mineralization	−	nearly complete loss of OCN secretion

The next lines start with results.

Sclerostin Inhibition Assay; improvement over sclerostin alone. [2]	effect on Wnt3a signaling ([2]; human embryonic cells, result in words)	Compound	IC100 [1, 4] [µM]	IC100 [3, 5] [µM]	Sclerostin Inhibition of Mineralization; improvement over sclerostin alone. [1, 4]	effect on mineralization [1, 6]	OSTEOCALCIN (Bone Formation Marker) [3, 5]	effect on OCN secretion [3, 6]
++ (++ indicates an IC100 < 10 μM)		CCN(CC)CCCn1c2cc(OC)ccc2c2ccnc(C)c21 [Example 6, N,N-diethyl-3-(7-methoxy-1-methyl-9H-pyrido[3,4-b]indol-9-yl)propan-1-amine]	< 10	< 10				
++ (++ indicates an IC100 < 10 μM)		COc1ccc2c(c1)[nH]c1c(C)nc(O)cc12 [Example 19, 7-methoxy-1-methyl-9H-pyrido[3,4-b]indol-3-ol]	< 10	< 10				
++ (++ indicates an IC100 < 10 μM)		Oc1ccc2c3ccnc(C(F)(F)F)c3n(CCN3CCOCC3)c2c1 [Example 26, 9-(2-morpholinoethyl)-1-(trifluoromethyl)-9H-pyrido[3,4-b]indol-7-ol]	< 10	< 10				
++ (++ indicates an IC100 < 10 μM)		COc1ccc2c3ccnc(C(F)(F)F)c3n(CC(C)N3CCOCC3)c2c1 (stereo not drawn) [Example 28, 4-(1-(7-methoxy-1-(trifluoromethyl)-9H-pyrido[3,4-b]indol-9-yl)propan-2-yl)morpholine]	< 10	< 10				
++ (++ indicates an IC100 < 10 μM)		COc1ccc2c3ccnc(C(F)(F)F)c3n(CCN3CCOCC3C)c2c1 (stereo not drawn) [Example 29, 4-(2-(7-methoxy-1-(trifluoromethyl)-9H-pyrido[3,4-b]indol-9-yl)ethyl)-3-methylmorpholine]	< 10	< 10				
++ (++ indicates an IC100 < 10 μM)		CC1COCCN1CCn1c2cc(O)ccc2c2ccnc(C(F)(F)F)c21 (stereo not drawn) [Example 30, 9-(2-(3-methylmorpholino)ethyl)-1-(trifluoromethyl)-9H-pyrido[3,4-b] indol-7-ol]	< 10	< 10				
++ (++ indicates an IC100 < 10 μM)		CC1CN(CCn2c3cc(O)ccc3c3ccnc(C(F)(F)F)c32)CC(C)O1 (stereo not drawn) [Example 31, 9-(2-(2,6-dimethylmorpholino)ethyl)-1-(trifluoromethyl)-9H-pyrido[3,4-b]indol-7-ol]	< 10	< 10				
++ (++ indicates an IC100 < 10 μM)		COc1ccc2c3ccnc(C(F)(F)F)c3n(CCN3CCCCC3)c2c1 [Example 33, 7-methoxy-9-(2-(piperidin-1-yl)ethyl)-1-(trifluoromethyl)-9H-pyrido[3,4-b]indole]	< 10	< 10				
++ (++ indicates an IC100 < 10 μM)		COc1ccc2c3ccnc(C(F)(F)F)c3n(CCNCCO)c2c1 [Example 34, 2-((2-(7-methoxy-1-(trifluoromethyl)-9H-pyrido[3,4-b]indol-9-yl)ethyl)amino)ethanol]	< 10	< 10				
+ (+ indicates an IC100 > 10 μM)		OCCN(CCO)CCn1c2cc(O)ccc2c2ccnc(C(F)(F)F)c21 [Example 36, 2,2′-((2-(7-hydroxy-1-(trifluoromethyl)-9H-pyrido[3,4-b]indol-9-yl)ethyl)azanediyl)diethanol]	> 10	> 10				
++ (++ indicates an IC100 < 10 μM)		COc1ccc2c3cc(F)nc(C)c3n(CCN3CCCCC3)c2c1 [Example 39, 3-fluoro-7-methoxy-1-methyl-9-(2-(piperidin-1-yl)ethyl)-9H-pyrido[3,4-b]indole]	< 10	< 10				
